Data as given in article PMC8804135 (Neurotherapeutics, 2021).
Numbered stars: 1 amine (or outer) side, 2 acyl side, 3 side chain; on linkers, the order of the positions; unused ones are H or OH. Bridge positions count the residues as written; N and C are the ends. Square brackets hold non-standard residues; d marks the D form. Peptide text beside a SMILES is read from it. dAbu(3S-yl) = C[C@@H]([C@@H](N[*:1])C(=O)[*:2])[*:3]; pGlu = O=C1CC[C@@H](C(=O)O)N1

What was measured:
[1] = test system: non-fasted male Wistar rats; experiment: Food intake and body weight after intranasal application of peptides; assay type: in vivo, rat
Method: For intranasal delivery, 1 mg of M89b was first dissolved in 566 µl 2,2,2-trifluorethanol, 566 µl 10% (2-hydroxypropyl)-ß-cyclodextrin (HBC), and 1 µl acetic acid and incubated at 60 °C for 20 min. Another 566 µl of 10% HBC were added. The peptide was then dried in a speed-vac, and the dried pellet was dissolved in 1132 µl water by vortexing and incubation at 60 °C. M871 and GALP were purchased from GL Biochem. M871 was dissolved in saline containing 10% HBC. GALP was dissolved in saline containing 5% α-cyclodextrin.
In vivo experiments involving intranasal treatment of rats and measurement of feeding behavior were performed at the Institute for Translational Medicine, University of Pécs, Pécs, Hungary. Experiments were approved by the National Ethical Council for Animal Research (permit number, BA 02/2000–11/2018). They were also in accord with the directives of the European Communities Council on the protection of animals used for scientific purposes (86/609/EEC, Directive 2010/63/EU of the European Parliament and of the Council).
Spontaneous food intake was measured in non-fasted male Wistar rats (3 months old) for 24 h following intranasal application of peptide solutions by an automated FeedScale System (Columbus, OH). Each group of animals (6–9 rats/group) was habituated to the individual chambers of the FeedScale System until daily food intake and changes in the body weight of the animals had normalized. This habituation, which lasted for a minimum of 2 weeks, allowed adaptation to the environment, to the powdered chow and to the feeder. This powdered form of chow prevented food hoarding. A special digital scale under the cages provided precise automated measurement and continuous recording of the amount of consumed food. During the measurement of the cumulative 24 h food intake, data were collected every 30 min.
Intranasal applications were performed at 06:00 PM at the onset of the active nighttime period of rats. First, the body weight of animals was recorded, and then they were intraperitoneally anesthetized with ketamine (52 mg/kg) and xylazine (9 mg/kg). For the intranasal application of peptides, rats were placed on their backs, and 25–30 µl of peptide solution was injected gently per nostril (total volume of 50–60 μl per rat depending on the administered peptides) using a 10-μl pipette. The following solutions were applied: M89b (25 nmol in 60 µl saline containing 10% HBC); GALP (17.5 nmol in 50 µl saline containing 5% α-cyclodextrin); M871 (219 nmol in 60 µl 10% HBC); and M89b + M871 (25 nmol M89b + 219 nmol M871 in 60 µl 10% HBC). […] At 24 h post-treatment, the body weight of the animals was measured.
Statistical analysis was performed with SPSS 11.0. […] Body weight data were analyzed by applying a one-way ANOVA with Tukey’s post hoc test. […]

[2] = molecular target: T1, GAL1R (Homo sapiens, UniProt P47211); experiment: Label-free dynamic mass redistribution assay, SY5Y-R1 cells; assay type: cell-based; parameters: expressed in transfected cells; settings: GAL1R-expressing SH-SY5Y cells; 1.6 nM to 5 µM
T1 sequence (P47211 1-349): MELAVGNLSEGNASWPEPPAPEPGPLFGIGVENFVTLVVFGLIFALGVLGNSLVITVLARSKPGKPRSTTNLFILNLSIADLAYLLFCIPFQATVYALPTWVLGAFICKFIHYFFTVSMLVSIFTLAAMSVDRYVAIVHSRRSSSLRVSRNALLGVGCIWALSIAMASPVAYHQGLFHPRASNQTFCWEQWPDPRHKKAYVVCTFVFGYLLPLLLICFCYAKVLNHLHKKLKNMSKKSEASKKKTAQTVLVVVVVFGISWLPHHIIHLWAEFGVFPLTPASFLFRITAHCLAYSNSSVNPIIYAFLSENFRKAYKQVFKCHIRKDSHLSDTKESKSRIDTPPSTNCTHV
Method: SH-SY5Y cells stably expressing low levels of either human GAL1R (SY5Y-R1) or GAL2R (SY5Y-R2) and HEK293 cells expressing human GAL3R (HEK-R3) were seeded in EnSpire LFC-[…] well plates (Perkin Elmer) at a concentration of 12,000 cells per well and cultured overnight at 37 °C and 5% CO2. The medium was aspired, and the cells were washed four times with Hank’s balanced salt solution (HBSS) (+ calcium, + magnesium) supplemented with HEPES (20 mM), and the final volume was adjusted to 30 µl per well. The plate was allowed to equilibrate to assay temperature for 1 h in the EnSpire multimode reader (Perkin Elmer). Galanin-(1–30) (GL Biochem) was dissolved and diluted in water. […] A baseline read was first generated by taking 4 measurements before ligands were added. The plate was measured between 30 and 70 repeats, and each treatment was performed in triplicate. […] EC50 values were calculated using Prism 8.2.0 (GraphPad Software Inc.). The values are provided as means of all independent experiments.

[3] = molecular target: T1, GAL1R; experiment: SRE luciferase reporter assay, GAL1R-transfected HEK293 Gqi cells; settings: transiently transfected HEK293 Gqi cells; up to 10 µM, 5 h
[4] = molecular target: T2, GAL3R (Homo sapiens, UniProt O60755); experiment: SRE luciferase reporter assay, GAL3R-transfected HEK293 Gqi cells; settings: transiently transfected HEK293 Gqi cells; up to 10 µM, 5 h
T2 sequence (O60755 1-368): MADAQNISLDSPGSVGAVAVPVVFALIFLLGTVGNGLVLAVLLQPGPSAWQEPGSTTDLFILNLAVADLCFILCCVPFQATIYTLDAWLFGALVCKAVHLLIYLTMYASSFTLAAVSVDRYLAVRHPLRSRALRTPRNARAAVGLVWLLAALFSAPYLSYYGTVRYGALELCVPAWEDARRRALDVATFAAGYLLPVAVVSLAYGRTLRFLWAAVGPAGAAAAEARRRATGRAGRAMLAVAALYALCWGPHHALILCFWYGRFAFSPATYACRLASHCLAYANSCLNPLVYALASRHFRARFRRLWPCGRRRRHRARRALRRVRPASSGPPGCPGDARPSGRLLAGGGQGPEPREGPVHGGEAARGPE

CC(C)C[C@H](NC(=O)[C@H](CC(C)C)NC(=O)[C@H](Cc1ccc(O)cc1)NC(=O)CNC(=O)[C@H](C)NC(=O)[C@H](C)NC(=O)[C@H](CC(N)=O)NC(=O)[C@H](CC(C)C)NC(=O)[C@H](CC(N)=O)NC(=O)[C@H](Cc1c[nH]c2ccccc12)NC(=O)[C@@H]1CCC(=O)N1)C(=O)N[C@@H](C)C(=O)N[C@H]1C(=O)N[C@@H](Cc2c[nH]cn2)C(=O)N[C@@H](C)C(=O)N[C@H](C(=O)NCC(=O)O)CS[C@H]1C [Variant M89b, G1pE-T3N-S6A-G12A-methyllanthionine[13–16]-galanin-(1–17)] ([pGlu]WNLNAAGYLLA[dAbu(3S-yl)]HACG-OH; thioether 13-16; C-terminus assumed)
Loss of initial body weight at 24 h post-treatment ([1]; intranasal 25 nmol in 10% HBC, p = 0.009 vs. vehicle): 2.6%
Reduction of 24 h food intake compared to vehicle ([1]; intranasal 25 nmol in 60 µl saline with 10% HBC, p = 0.006 vs vehicle): 23%
Stimulation of GAL1R, DMR in SY5YR1 cells [2]: stimulate GAL2R only, not GAL1R
Stimulation of GAL1R, luciferase reporter [3]: inability to stimulate
Stimulation of GAL3R, luciferase reporter [4]: inability to stimulate
